Here are results for 4 compounds from patent publication US20100173923A1, “4 (PYRROLOPYRIDINYL)PYRIMIDINYL-2-AMINE DERIVATIVES” (priority 2006, published 2010).

Structures are written as SMILES.

A word on the IC50: it is the concentration that gives 50% inhibition. A low value points to greater potency in that assay.

The assay deals with tumour cells (for example commercially available colon carcinoma cell lines). Description: Inhibition of the proliferation/vitality of tumour cells in vitro (Crystal Violet staining). In kind it is cell-based. To be noted: 48 hours incubation with test substance, serum-containing medium, Crystal Violet absorbance, value given as range. The protocol:
In the present experiment description, the inhibition of tumour cell proliferation/tumour cell vitality by active ingredients is described.
The cells are sown in a suitable cell density in microtitre plates (96-well format). On the next day, the test substances are added in the form of a concentration series. After two further days of cultivation in serum-containing medium, the cell density is determined photometrically by staining the cells with Crystal Violet.
For example commercially available colon carcinoma cell lines.
The cells are cultivated in medium. At intervals of 3-4 days, the cells are detached from the culture dishes with the aid of trypsin solution and sown in suitable dilution in fresh medium. The cells are cultivated at 37° Celsius and 10% CO2.
• A cell culture bottle is washed with 1×PBS • Addition of 3 ml of 1× trypsin solution. Incubation at 37° C. for 5 min in an incubator. • Termination by addition of 7 ml of medium • Centrifugation of the cells (for example for 5 minutes at 150×g (1200 rpm)) • Remove medium by tilting and resuspend cells in fresh medium • Cell counting, for example using Trypan Blue solution (1:2 dilution) in counting chamber • Dilute cell suspension to 25,000 cells/ml and plate out 100 μl/well (2500 cells/well) • Incubation of the microtitre plate at 37° C. in 10% CO2 overnight
• The test substances are dissolved, for example, in DMSO and subsequently employed in corresponding concentration (if desired in a dilution series) in the cell culture medium. The dilution steps can be adapted depending on the efficiency of the active ingredients and the desired spread of the concentrations. Cell culture medium is added to the test substances in corresponding concentrations. Within the dilution series, the final concentration of DMSO in the cell culture medium can be constant (for example at 0.5%). The addition of the test substances to the cells can take place one day after sowing of the cells. To this end, the medium is removed from the cells, and the test substance dilutions are added to the cells (in the desired concentrations in the cell culture medium). […]
• The medium is removed from the cells, and the cells are washed with PBS. […] An absorption measurement is carried out at corresponding wavelength, for example 550 nm, in a microtitre plate reader (for example TECAN Genios No F129004). […]
The absorbance value of the medium control (no cells and test substances used) is subtracted from all other absorbance values. The controls (cells without test substance) with the solvent DMSO are set equal to 100 percent, and all other absorbance values are set in relation thereto (for example in % of control):
IC50 values (50% inhibition) are determined with the aid of statistics programs, such as, for example, RS1.
On to `CNc1nccc(-c2cn(CCOC)c3ncccc23)n1` [Compound A4], for which the IC50 was in the range of 5 to 50 µM. For `COCCn1cc(-c2ccnc(Nc3ccccc3)n2)c2cccnc21` [Compound A2, 1-(2-methoxyethyl)-3-(2-phenylaminopyrimidin-4-yl)-1H-pyrrolo[2,3-b]pyridine] the value was 5 to 50 µM; for `CNc1nccc(-c2c[nH]c3ncccc23)n1` [Compound A3], 0.5 to 5 µM. `c1ccc(Nc2nccc(-c3c[nH]c4ncccc34)n2)cc1` [Compound A1, 3-(2-phenylaminopyrimidin-4-yl)-1H-pyrrolo[2,3-b]pyridine]: the IC50 fell in the range of 0.05 to 0.5 µM.
